Data published in patent US12564638B2 (SHANGHAITECH UNIVERSITY, priority 2019, dated 2026).
Where two headings read alike, the source gives them in different places.

How the values were obtained:
Assay type in all cases: cell-based
[1] = tested on: H1975 (EGFR T790M+L858R mutation, non-small cell lung cancer cell line); experiment: Cell viability assay (WST/CCK8), H1975 cells; conditions: Homo sapiens, NCI-H1975, H1975 (L858R + T790M), read-out: IC50 (half inhibitory concentration)
In short: (§1)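 Cells seeded at 3 000 per well in RPMI1640 complete medium, dosed next day with compounds at indicated concentrations (DMSO negative control, EGFR TKIs as positive control).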

[2] = tested on: BT474 cells (HER2 positive breast cancer cells); experiment: Cell viability assay (CCK8), BT474 cells; conditions: for IC50: Homo sapiens, BT-474, Table 10, BT474, 72 hours, read-out: IC50 (half inhibitory concentration)
In short: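 HER2-overexpressing BT474 cells in RPMI1640 were exposed to compounds for 72 hours over 10 concentrations (3-fold dilution, top 10 μM). Viability was measured with CCK8 reagent against a DMSO control, and IC50 was taken from growth inhibition curves.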

[3] = tested on: HCC827 cells (EGFR Exon19 del, non-small cell lung cancer cells); experiment: Cell viability assay (WST/CCK8), HCC827 cells; conditions: Homo sapiens, HCC827, 72 h, HCC827 (Exon19 Del), 72 hours, read-out: IC50 (half inhibitory concentration)
In short: (§2)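 Cells seeded at 3 000/well in RPMI1640 complete medium, dosed next day with compounds (top 10 μM, 3-fold, 10 points) for 72 h. Viability read with WST (CCK8) reagent; DMSO as negative control, EGFR TKIs as positive controls; IC50 determined.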

[4] = tested on: PC9 cells (EGFR Exon 19 del, non-small cell lung cancer cells); experiment: Cell viability assay (WST/CCK8), PC9 cells; conditions: Homo sapiens, PC-9, PC9 (Exon19 Del), 72 hours, read-out: IC50 (half inhibitory concentration)
In short: as §2

[5] = molecular target: T1, EGFR (L858R+T790M) in H1975 cells (Homo sapiens, UniProt P00533, L858R/T790M); experiment: Western blot of EGFR protein level (degradation), H1975 cells; conditions: H1975 cells, 1, 10, 50, 100, 500 nM, 16 hours
T1 construct: determined in H1975 cells with the EGFR L858R+T790M mutation; endogenous in cells; host or cells: H1975
T1 sequence (P00533 25-1210 T790M/L858R): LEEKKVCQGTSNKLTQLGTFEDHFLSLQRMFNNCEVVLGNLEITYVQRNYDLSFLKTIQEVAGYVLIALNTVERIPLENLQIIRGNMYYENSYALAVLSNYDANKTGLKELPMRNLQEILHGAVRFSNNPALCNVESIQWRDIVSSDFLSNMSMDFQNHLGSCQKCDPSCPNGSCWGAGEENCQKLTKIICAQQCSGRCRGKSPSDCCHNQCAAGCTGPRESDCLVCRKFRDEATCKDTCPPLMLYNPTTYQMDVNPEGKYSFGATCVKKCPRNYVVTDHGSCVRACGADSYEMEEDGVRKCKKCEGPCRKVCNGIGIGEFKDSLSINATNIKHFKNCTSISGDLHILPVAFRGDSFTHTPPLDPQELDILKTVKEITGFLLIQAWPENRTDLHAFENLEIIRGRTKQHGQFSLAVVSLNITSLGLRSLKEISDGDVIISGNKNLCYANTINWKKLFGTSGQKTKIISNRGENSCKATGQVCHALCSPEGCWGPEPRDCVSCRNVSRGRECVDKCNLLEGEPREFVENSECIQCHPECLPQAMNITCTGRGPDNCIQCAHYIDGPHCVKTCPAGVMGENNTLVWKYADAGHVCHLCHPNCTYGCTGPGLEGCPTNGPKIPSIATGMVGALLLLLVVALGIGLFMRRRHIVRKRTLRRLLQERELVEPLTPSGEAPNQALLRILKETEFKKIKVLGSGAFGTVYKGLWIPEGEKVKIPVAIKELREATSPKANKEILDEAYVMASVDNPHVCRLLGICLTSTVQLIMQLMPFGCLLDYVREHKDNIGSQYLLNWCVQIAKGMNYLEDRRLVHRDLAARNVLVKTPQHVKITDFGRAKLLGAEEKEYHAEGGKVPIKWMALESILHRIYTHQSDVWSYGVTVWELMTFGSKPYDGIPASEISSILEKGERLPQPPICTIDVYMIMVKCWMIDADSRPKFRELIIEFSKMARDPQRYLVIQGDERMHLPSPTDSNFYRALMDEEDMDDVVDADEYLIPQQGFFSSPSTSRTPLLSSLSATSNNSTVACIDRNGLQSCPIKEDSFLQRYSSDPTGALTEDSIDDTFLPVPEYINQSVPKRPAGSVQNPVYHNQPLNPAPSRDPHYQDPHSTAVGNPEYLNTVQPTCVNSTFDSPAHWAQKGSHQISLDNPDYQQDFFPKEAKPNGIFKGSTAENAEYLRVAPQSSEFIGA
Procedure: Cancer cells were planted in 12-well-plate at the density of 0.15 million cells per well with 1 mL RPMI1640 completed culture medium. Compounds with different concentrations (DMSO as a solution system, and 1 μL of compounds of different concentrations was added to 1 mL of the cell culture medium) were added to the cells planted one day before. 16 hours after treated, the medium was discarded and the cells were washed with precooled PBS. The cells were placed on ice and treated with RIPA protein lysis buffer containing halt protease and phosphatase inhibitor. After centrifugation at 10000 rpm at 4° C. for 10 minutes, the supernatant was collected. The same amount of proteins were added into 4×SDS loading buffer and heated at 95° C. for 5 minutes for denaturation, and the samples were stored at −20° C. after denaturation, or directly conducted protein electrophoresis. The 4-20% gradient preformed Electrophoretic gels were purchased from Kingsy. The electrophoresis tank and related components were purchased from Bio-rad company, and the electrophoresis condition was isobaric 120V for 2 hours. PVDF membrane was used for the transmembrane, and the whole transmembrane process was carried out on ice with a constant current of 0.4 amperes for an hour. The membrane was blocked with 5% skimmed milk dilution with TBST buffer. Refer to the corresponding antibody instructions for the specific steps of immunoblotting.
The degradation efficacy of the dacomitinib-based compounds on EGFR was determined in HCC827 and H1975 cell lines, which harboring EGFR Exon 19del and EGFR L858R+T790M mutations respectively.
In FIG. 2, concentration-dependent degradation assays were performed on non-small cell lung cancer cell line H1975 (T790M-mutant cell line, the most common mutation type of first-generation EGFR inhibitors). […] The DC50 of compounds SIAIS262032 and SIAIS262037 are both about 50 nM, which provides great potential for drug development to overcome drug resistance caused by EGFR T790M mutation.
The degradation efficacy of the canertinib-based compounds on EGFR was determined in H1975 cells with the EGFR L858R+T790M mutation.
The H1975 cells were treated with the PROTADs with different concentrations (1, 10, 50, 100, 500 nM) for 16 hours, and then the western blot assay was taken to estimate the EGFR levels of the cell lysates in each group. […] The DC50 of SIAIS262125 and SIAIS262182 are both less than 10 nM, much better than canertinib, which provides great potential for drug development to overcome drug resistance caused by EGFR T790M mutation.

[6] = tested on: PC9BracA1 (EGFR Exon 19 del+T790M, non-small cell lung cancer cells); experiment: Cell viability assay (WST/CCK8), PC9Brac1 cells; conditions: read-out: IC50 (half inhibitory concentration)
In short: as §1

[7] = molecular target: EGFR (Exon 19del) in HCC827 cells (Homo sapiens, UniProt P00533, DEL746-750); experiment: Western blot of EGFR protein level (degradation), HCC827 cells; conditions: HCC827 cells, 1, 10, 50, 100, 500 nM, 16 hours
Sequence of EGFR (Exon 19del) in HCC827 cells (P00533 with tags, fused parts or gaps DEL746-750): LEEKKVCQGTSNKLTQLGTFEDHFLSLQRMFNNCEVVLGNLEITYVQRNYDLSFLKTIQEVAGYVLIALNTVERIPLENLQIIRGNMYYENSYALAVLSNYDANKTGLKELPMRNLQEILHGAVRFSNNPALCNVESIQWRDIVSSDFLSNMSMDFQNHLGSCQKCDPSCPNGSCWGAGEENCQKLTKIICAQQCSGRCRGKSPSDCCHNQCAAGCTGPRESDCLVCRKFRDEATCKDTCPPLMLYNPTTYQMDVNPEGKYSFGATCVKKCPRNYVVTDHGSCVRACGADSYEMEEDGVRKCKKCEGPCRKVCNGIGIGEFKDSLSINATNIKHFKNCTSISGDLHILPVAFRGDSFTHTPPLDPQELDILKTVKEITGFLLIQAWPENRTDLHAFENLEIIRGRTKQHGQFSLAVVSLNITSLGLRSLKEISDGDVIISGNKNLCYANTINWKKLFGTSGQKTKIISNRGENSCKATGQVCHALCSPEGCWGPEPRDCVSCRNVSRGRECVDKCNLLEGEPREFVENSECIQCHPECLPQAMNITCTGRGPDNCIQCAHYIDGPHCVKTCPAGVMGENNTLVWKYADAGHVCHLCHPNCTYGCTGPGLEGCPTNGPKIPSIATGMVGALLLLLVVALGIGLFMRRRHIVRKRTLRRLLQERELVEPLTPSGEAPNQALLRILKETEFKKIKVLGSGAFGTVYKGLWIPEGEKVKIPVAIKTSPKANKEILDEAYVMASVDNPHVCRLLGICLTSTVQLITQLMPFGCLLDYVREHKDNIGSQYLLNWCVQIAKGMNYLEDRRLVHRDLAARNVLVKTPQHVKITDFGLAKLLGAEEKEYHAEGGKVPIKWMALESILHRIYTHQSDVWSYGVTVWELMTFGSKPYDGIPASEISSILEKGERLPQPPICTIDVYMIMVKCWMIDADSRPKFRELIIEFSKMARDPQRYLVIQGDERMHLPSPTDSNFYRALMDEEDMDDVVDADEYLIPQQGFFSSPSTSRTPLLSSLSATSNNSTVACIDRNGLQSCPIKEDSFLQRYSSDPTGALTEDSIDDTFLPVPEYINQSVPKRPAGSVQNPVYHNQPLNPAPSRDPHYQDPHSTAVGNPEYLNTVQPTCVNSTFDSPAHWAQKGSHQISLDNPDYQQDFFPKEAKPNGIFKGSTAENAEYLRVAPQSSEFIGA
Procedure: Cancer cells were planted in 12-well-plate at the density of 0.15 million cells per well with 1 mL RPMI1640 completed culture medium. Compounds with different concentrations (DMSO as a solution system, and 1 μL of compounds of different concentrations was added to 1 mL of the cell culture medium) were added to the cells planted one day before. 16 hours after treated, the medium was discarded and the cells were washed with precooled PBS. The cells were placed on ice and treated with RIPA protein lysis buffer containing halt protease and phosphatase inhibitor. After centrifugation at 10000 rpm at 4° C. for 10 minutes, the supernatant was collected. The same amount of proteins were added into 4×SDS loading buffer and heated at 95° C. for 5 minutes for denaturation, and the samples were stored at −20° C. after denaturation, or directly conducted protein electrophoresis. The 4-20% gradient preformed Electrophoretic gels were purchased from Kingsy. The electrophoresis tank and related components were purchased from Bio-rad company, and the electrophoresis condition was isobaric 120V for 2 hours. […]
The degradation efficacy of the dacomitinib-based compounds on EGFR was determined in HCC827 and H1975 cell lines, which harboring EGFR Exon 19del and EGFR L858R+T790M mutations respectively. […]

[8] = Table 7, canertinib-based compounds
[9] = Table 6, canertinib-based compounds, WST
[10] = Table 7, canertinib-based compounds, PC9Brca1 (Ex19del + T790M)
[11] = PC9Brac1 (Ex19del + T790M), 72 hours, WST

Compound	IC50 ([1]; 72 hours, WST) [nM]	IC50 [1, 8] [nM]	antineoplastic activity (in words) ([2]; BT474 cells, 72 hours)	IC50 [2] [nM]	IC50 ([3]; WST (CCK8)) [nM]	IC50 [3, 9] [nM]	IC50 [4, 9] [nM]	EGFR degradation (EGFR level, western blot) [5]	IC50 [6, 10] [nM]	EGFR degradation (EGFR level, western blot) [7]	IC50 ([4]; WST (CCK8)) [nM]	IC50 [6, 11] [nM]
C=CC(=O)Nc1cc2c(Nc3ccc(F)c(Cl)c3)ncnc2cc1OCCCN1CCN(C(=O)CCCCCNc2cccc3c2C(=O)N(C2CCC(=O)NC2=O)C3=O)CC1 (stereo not drawn) [SIAIS262125, N-(4-((3-chloro-4-fluorophenyl)amino)-7-(3-(4-(6-((2-(2,6-dioxopiperidin-3-yl)-1,3-dioxoisoindolin-4-yl)amino)hexanoyl)piperazin-1-yl)propoxy)quinazolin-6-yl)acrylamide]	< 25	15	better antineoplastic activity than the relative EGFR TKIs	9.6	0.3	0.3	1.3	obvious EGFR degradation efficacy	79			
C=CC(=O)Nc1cc2c(Nc3ccc(F)c(Cl)c3)ncnc2cc1OCCCN1CCC(N2CCN(CCCCCCSc3cccc4c3CN(C3CCC(=O)NC3=O)C4=O)CC2)CC1 (stereo not drawn) [SIAIS262180, N-(4-((3-chloro-4-fluorophenyl)amino)-7-(3-(4-(4-(6-((2-(2,6-dioxopiperidin-3-yl)-1-oxoisoindolin-4-yl)thio)hexyl)piperazin-1-yl)piperidin-1-yl)propoxy)quinazolin-6-yl)acrylamide]		24		4.4		4.2	10.2	obvious EGFR degradation efficacy	570			
COc1cc2ncnc(Nc3ccc(F)c(Cl)c3)c2cc1NC(=O)/C=C/CN1CCCCC1 [dacomitinib, reference compound]	834				0.5					couldn't degrade EGFR	0.4	674
C=CC(=O)Nc1cc2c(Nc3ccc(F)c(Cl)c3)ncnc2cc1OCCCN1CCN(CCCCCCNc2cccc3c2C(=O)N(C2CCC(=O)NC2=O)C3=O)CC1 (stereo not drawn) [SIAIS262182, N-(4-((3-chloro-4-fluorophenyl)amino)-7-(3-(4-(6-((2-(2,6-dioxopiperidin-3-yl)-1,3-dioxoisoindolin-4-yl)amino)hexyl)piperazin-1-yl)propoxy)quinazolin-6-yl)acrylamide]	< 25	12		5		1.4	11.1	obvious EGFR degradation efficacy	192			
COc1cc2ncnc(Nc3ccc(F)c(Cl)c3)c2cc1NC(=O)/C=C/CN1CCC(N2CCN(C(=O)CCCCCSc3cccc4c3CN(C3CCC(=O)NC3=O)C4=O)CC2)CC1 (stereo not drawn) [SIAIS262035, (E)-N-(4-((3-chloro-4-fluorophenyl)amino)-7-methoxyquinazolin-6-yl)-4-(4-(4-(6-((2-(2,6-dioxopiperidin-3-yl)-1-oxoisoindolin-4-yl)thio)hexanoyl)piperazin-1-yl)piperidin-1-yl)but-2-enamide]	514			2.1	2.2			obvious EGFR degradation efficacy			6.1	491
